Measured values taken from ChEMBL document CHEMBL1201862, “PubChem BioAssay data set” (2004).
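Dose response: 5 concentrations. Exposure: 48 h. Format: 96-well plates. Endpoint: linear interpolation; highest concentration if not reached. GI50 is the concentration that inhibits growth by half.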 The source made the active and inactive calls. Cut-off read from the data, not from the text of the source: active = GI50 up to about 1.1 µM and inactive = higher.

Assays:
Assay in all cases: NCI anticancer screen, dose series, 48 h
MCF7 = test system: MCF7
M14 = test system: M14
UO-31 = test system: UO-31
OVCAR-8 = test system: OVCAR-8
UACC-257 = test system: UACC-257
MDA-MB-435 = test system: MDA-MB-435
SK-OV-3 = test system: SK-OV-3
RPMI-8226 = test system: RPMI-8226
NCI-H23 = test system: NCI-H23
IGROV-1 = test system: IGROV-1
KM12 = test system: KM12
HCC 2998 = test system: HCC 2998
OVCAR-3 = test system: OVCAR-3
OVCAR-5 = test system: OVCAR-5
SF-295 = test system: SF-295
OVCAR-4 = test system: OVCAR-4
NCI-H522 = test system: NCI-H522
ACHN = test system: ACHN
MDA-MB-231 = test system: MDA-MB-231
TK-10 = test system: TK-10

Measured: GI50

S=C(Nc1ccccc1)c1ccc(CN2CCCCC2)s1
inactive: MCF7 18 µM | M14 16 µM | UO-31 16.2 µM | OVCAR-8 15.6 µM | UACC-257 19.4 µM | MDA-MB-435 18.1 µM | SK-OV-3 19.5 µM | RPMI-8226 21.7 µM | NCI-H23 19.4 µM | IGROV-1 24 µM | KM12 17.8 µM | HCC 2998 21.8 µM | OVCAR-3 48.6 µM | OVCAR-5 16.2 µM | SF-295 18.5 µM | OVCAR-4 35.6 µM | NCI-H522 17.8 µM | ACHN 45 µM

O=C(O)C1C(=O)Oc2c(cccc2[N+](=O)[O-])C1O (stereo not given)
inactive: M14 > 100 µM | OVCAR-8 > 100 µM | UACC-257 > 100 µM | MDA-MB-435 > 100 µM | RPMI-8226 > 100 µM | NCI-H23 > 100 µM | IGROV-1 > 100 µM | MDA-MB-231 > 100 µM | HCC 2998 > 100 µM | OVCAR-3 > 100 µM | OVCAR-5 > 100 µM | SF-295 > 100 µM | OVCAR-4 > 100 µM | TK-10 > 100 µM | NCI-H522 > 100 µM | ACHN > 100 µM

C=C=C(C(=O)OC)[S+]([O-])c1ccccc1[N+](=O)[O-] (stereo not given)
inactive: M14 > 100 µM | UO-31 > 100 µM | OVCAR-8 > 100 µM | UACC-257 > 100 µM | SK-OV-3 > 100 µM | RPMI-8226 > 100 µM | NCI-H23 > 100 µM | IGROV-1 > 100 µM | KM12 > 100 µM | HCC 2998 > 100 µM | OVCAR-3 > 100 µM | OVCAR-5 > 100 µM | SF-295 > 100 µM | OVCAR-4 > 100 µM | TK-10 > 100 µM | NCI-H522 22.3 µM | ACHN > 100 µM

CCOP(=O)(O)C1C(CO)OC(n2ccc(=O)[nH]c2=O)C1O (stereo not given)
inactive: M14 > 100 µM | UO-31 > 100 µM | OVCAR-8 > 100 µM | UACC-257 > 100 µM | RPMI-8226 > 100 µM | IGROV-1 > 100 µM | MDA-MB-231 > 100 µM | KM12 > 100 µM | HCC 2998 > 100 µM | OVCAR-3 > 100 µM | SF-295 > 100 µM | OVCAR-4 > 100 µM | TK-10 > 100 µM | NCI-H522 > 100 µM | ACHN > 100 µM

O=[N+]([O-])c1ccc2c(c1)C1=C(CO2)Cc2ccccc2O1
inactive: M14 20.6 µM | UO-31 13.7 µM | OVCAR-8 33.5 µM | UACC-257 17.8 µM | MDA-MB-435 25.6 µM | SK-OV-3 74.5 µM | RPMI-8226 36.6 µM | NCI-H23 22 µM | IGROV-1 19.2 µM | MDA-MB-231 27.4 µM | KM12 20.1 µM | HCC 2998 19.7 µM | OVCAR-3 19.8 µM | OVCAR-5 24.5 µM | SF-295 37.8 µM | OVCAR-4 36.9 µM | TK-10 26.5 µM | NCI-H522 22.4 µM | ACHN 15.5 µM

N=C(N)N/N=C(/CC1OC(=O)c2ccccc21)c1ccc2ccccc2c1 (stereo not given)
inactive: M14 16.7 µM | UO-31 17.8 µM | OVCAR-8 15.8 µM | UACC-257 14.6 µM | SK-OV-3 21.9 µM | RPMI-8226 17.1 µM | NCI-H23 26.2 µM | IGROV-1 22.1 µM | KM12 12.9 µM | HCC 2998 17.3 µM | OVCAR-3 17.5 µM | OVCAR-5 30.1 µM | SF-295 23.8 µM | OVCAR-4 17.2 µM | TK-10 18.1 µM | NCI-H522 14.2 µM | ACHN 18.9 µM

CCc1cccc(C(C)C)c1NC(=O)CC1Sc2ccccc2NC1=O (stereo not given)
inactive: M14 38.6 µM | UO-31 43.3 µM | OVCAR-8 78 µM | UACC-257 43.8 µM | SK-OV-3 > 100 µM | RPMI-8226 48.5 µM | NCI-H23 52.8 µM | IGROV-1 37.8 µM | KM12 54.8 µM | HCC 2998 > 100 µM | OVCAR-3 56 µM | OVCAR-5 > 100 µM | SF-295 44.3 µM | OVCAR-4 76.2 µM | TK-10 > 100 µM | NCI-H522 33.4 µM | ACHN 51.6 µM

CCCSc1ccc2[nH]c(N3C(=O)/C(=C/c4ccccc4)N=C3c3ccccc3)cc2c1
inactive: MCF7 24.4 µM | M14 16.6 µM | UO-31 42.9 µM | OVCAR-8 19.5 µM | UACC-257 17 µM | MDA-MB-435 8.3 µM | RPMI-8226 12.4 µM | NCI-H23 23.5 µM | IGROV-1 31.9 µM | KM12 15.1 µM | HCC 2998 15.1 µM | OVCAR-5 > 50 µM | OVCAR-4 30 µM | NCI-H522 12.1 µM | ACHN 39.2 µM

Cc1ccc(/S(Cc2ccccc2)=N\S(=O)(=O)c2ccc(C)cc2)cc1 (stereo not given)
inactive: MCF7 > 100 µM | M14 > 100 µM | UO-31 > 100 µM | OVCAR-8 > 100 µM | UACC-257 > 100 µM | MDA-MB-435 > 100 µM | RPMI-8226 > 100 µM | NCI-H23 > 100 µM | KM12 > 100 µM | OVCAR-3 > 100 µM | OVCAR-5 > 100 µM | SF-295 > 100 µM | TK-10 > 100 µM | ACHN > 100 µM

N#CC(/C(=N/NC(=O)C(=O)NN)C(=O)NC12CC3CC(CC(C3)C1)C2)c1ccccc1 (stereo not given)
inactive: M14 > 100 µM | UO-31 > 100 µM | OVCAR-8 > 100 µM | UACC-257 > 100 µM | SK-OV-3 > 100 µM | RPMI-8226 > 100 µM | NCI-H23 > 100 µM | IGROV-1 > 100 µM | KM12 > 100 µM | HCC 2998 > 100 µM | OVCAR-3 > 100 µM | OVCAR-5 > 100 µM | SF-295 > 100 µM | OVCAR-4 > 100 µM | TK-10 > 100 µM | NCI-H522 > 100 µM | ACHN > 100 µM

CC(C)=CC1C(COC(=O)c2cc3c(cc2Cl)OCO3)C1(C)C (stereo not given)
inactive: M14 38.7 µM | UO-31 54.2 µM | OVCAR-8 34.8 µM | UACC-257 40.3 µM | MDA-MB-435 28 µM | NCI-H23 33.3 µM | IGROV-1 45.2 µM | MDA-MB-231 73.6 µM | KM12 28.2 µM | OVCAR-3 25.2 µM | OVCAR-5 60.4 µM | SF-295 34.4 µM | OVCAR-4 28.4 µM | TK-10 > 100 µM | NCI-H522 18 µM | ACHN 33.1 µM

Cc1cc(C)c(C2CC(O)C(CO)O2)cc1C (stereo not given)
inactive: M14 > 100 µM | UO-31 > 100 µM | OVCAR-8 > 100 µM | UACC-257 > 100 µM | MDA-MB-435 > 100 µM | SK-OV-3 > 100 µM | RPMI-8226 > 100 µM | NCI-H23 > 100 µM | IGROV-1 > 100 µM | MDA-MB-231 > 100 µM | KM12 > 100 µM | HCC 2998 > 100 µM | OVCAR-3 > 100 µM | OVCAR-5 > 100 µM | SF-295 > 100 µM | OVCAR-4 > 100 µM | TK-10 > 100 µM | NCI-H522 > 100 µM | ACHN > 100 µM
